According to patent US6444217B1, “Drug delivery devices, and methods of use” (University of Washington, priority 2000, dated 2002):

System: 3T3-L1 adipocyte cells
Assay: ability of released insulin to regulate 14C-deoxyglucose uptake
Assay type: cell-based
Conditions: 14C-deoxyglucose uptake by cultured 3T3-L1 adipocyte cells

For insulin, the “biological activity of released insulin” value was “retains its biological activity”.
